# How the values were obtained:
# S1P4 receptor = target: T1, S1P4 receptor (Homo sapiens, UniProt O95977); settings: GTP[γ35S] binding assay; report PLoS One, 2014; cited from earlier work
# T1 sequence (O95977 1-384): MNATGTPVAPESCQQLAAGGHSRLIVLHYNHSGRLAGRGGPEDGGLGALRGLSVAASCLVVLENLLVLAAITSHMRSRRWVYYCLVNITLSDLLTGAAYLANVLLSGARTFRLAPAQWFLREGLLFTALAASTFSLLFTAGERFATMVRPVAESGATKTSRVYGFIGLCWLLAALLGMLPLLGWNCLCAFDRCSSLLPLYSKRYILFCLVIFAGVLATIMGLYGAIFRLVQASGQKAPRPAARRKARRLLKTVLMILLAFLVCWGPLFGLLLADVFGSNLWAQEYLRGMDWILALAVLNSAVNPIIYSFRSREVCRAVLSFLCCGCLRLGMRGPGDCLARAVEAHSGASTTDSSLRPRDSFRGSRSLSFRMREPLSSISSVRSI
# VEGF = VEGF production in CNV model (western blot of choroid-retinal pigment epithelium); type: in vivo, mice; settings: 0.3 mg/kg orally once daily, 5 days after laser irradiation
# Procedure: A CNV model generated by the same method as in Example 1 was orally administered Compound 1 suspended in a vehicle (0.5% MC solution) at a dose of 0.3 mg/kg (in terms of free form) once daily from the day before laser irradiation to the day of sampling. Controls were an untreated group (normal group) and a group administered only the vehicle (vehicle group). Experiments were performed using 6 mice in the Compound 1 administration group, 8 mice in the normal group, and 7 mice in the vehicle group. After 5 days from the laser irradiation, the mice were euthanized by cervical dislocation, and the eyeball was extirpated. Choroid-retinal pigment epithelium was isolated from the eyeball, and the expression amount of VEGF protein was measured by a western blot method using an anti-VEGF antibody (manufactured by Merck Millipore). In addition, the results of calculation of the expression amount of VEGF relative to that of β-actin with reference to the normal group are shown in FIG. 5(b).
# S1P3 receptor = S1P3 receptor (Homo sapiens, UniProt Q99500); settings: GTP[γ35S] binding assay; report PLoS One, 2014; cited from earlier work
# S1P3 receptor, sequence (Q99500 whole entry): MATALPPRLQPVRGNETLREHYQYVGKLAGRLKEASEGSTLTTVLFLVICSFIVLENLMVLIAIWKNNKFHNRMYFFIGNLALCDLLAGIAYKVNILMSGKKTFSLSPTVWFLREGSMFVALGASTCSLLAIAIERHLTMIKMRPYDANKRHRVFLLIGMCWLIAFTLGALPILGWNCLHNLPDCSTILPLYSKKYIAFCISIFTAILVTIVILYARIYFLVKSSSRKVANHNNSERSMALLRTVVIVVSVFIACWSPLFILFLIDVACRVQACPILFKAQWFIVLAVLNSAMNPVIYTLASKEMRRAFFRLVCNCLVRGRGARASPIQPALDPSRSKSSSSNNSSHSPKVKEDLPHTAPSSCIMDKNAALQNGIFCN
# [1] = system: retinal vein occlusion (RVO) model; assay: Retinal vein occlusion (RVO) model, oral: thickness of retinal inner nuclear layer (INL); type: in vivo, mice; settings: dose of at least 0.03 mg/kg or more, 12 hours before and immediately after laser irradiation, 24 hours after irradiation
# Procedure: Eight-week-old mice (Japan SLC, Inc., ddy strain) were anesthetized by intramuscularly administering 10 mL/kg of a mixed anesthetic solution diluted so as to contain ketamine (120 mg/kg) and xylazine (6 mg/kg). After that, 0.15 mL of rose bengal (20 mg/kg; WAKO) was administered into the tail vein, and a vein three head systems away from the optic nerve head of the right eye of the mice was irradiated with a laser to occlude a retinal vein. For the occlusion, the laser irradiation was performed 10 times to 15 times per vein. For the laser irradiation, an attachment of a fundus photography apparatus Micron 4 (Phoenix Research Laboratories, Inc., Pleasanton, Calif., USA) was used (wavelength: 532 nm, spot size: 50 μm, irradiation time: 5,000 ms, laser output: 50 mW). Three veins were occluded per eye, and it was confirmed with photographs of the fundus that the laser-irradiated veins had been completely occluded. […]
# After 24 hours from the laser irradiation, the mice were euthanized by cervical dislocation, the eyeball was extirpated, and histological evaluation was performed by a hematoxylin-eosin staining method. In addition, the thickness of the retinal inner nuclear layer (INL) was measured at intervals of 240 μm on both sides, i.e., ear side and nose side from the center of the optic nerve head. […]
smiles,measurement,setting,value
"C[C@H](Oc1ccc(-c2nc(-c3ccc4[nH]cnc4c3)no2)cc1C(F)(F)F)C(F)(F)F.Cl [Compound 1, 5-{5-[3-(trifluoromethyl)-4-{[(2S)-1,1,1-trifluoropropan-2-yl]oxy}phenyl]-1,2,4-oxadiazol-3-yl}-1H-benzimidazole monohydrochloride]",EC50 for S1P4 receptor agonist activity as compared to that for the S1P1 receptor,S1P4 receptor,≥ 100 fold
same,"expression of VEGF relative to β-actin, as compared to the vehicle group",VEGF,significantly reduced the expression of VEGF
same,EC50 for S1P3 receptor agonist activity as compared to that for the S1P1 receptor,S1P3 receptor,≥ 100 fold
same,thickening of the INL (retinal edema),[1],ameliorated the thickening of the INL

# — US20210113529A1, “MEDICINE FOR PREVENTING OR TREATING OPHTHALMIC DISEASE ASSOCIATED WITH ENHANCED INTRAOCULAR NEOVASCULARIZATION AND/OR INTRAOCULAR VASCULAR PERMEABILITY” (KYOTO UNIVERSITY, priority 2018, published 2021)
